# From patent US7704971B2, “Uracil reductase inactivators” (SmithKlineBeecham Corporation, priority 1990, dated 2010)
# How the values were obtained:
# [1] = Effect on plasma FU level, mice; type: in vivo; details: 5-FU p.o. or i.p., EU 2 mg/kg i.p. 90 minutes prior to 5-FU
# Experimental: Mice were dosed either orally (p.o.) or interperitoneally (i.p.) with 5-fU. 5-ethynyluracil (EU) at 2mg/kg was dosed i.p. 90 minutes prior to the 5-FU.
# In addition, the usual variability in plasma FU in rats orally dosed with FU at 50 mg/kg was eliminated by EU pretreatment.
# uracil reductase [2] = test: Inactivation of uracil reductase in vivo (plasma uracil and thymine), dogs
# Experimental: (§1) The maximum effect occurred at about 0.1 mg/kg p.o. in rats, at 0.5 to 1 mg/kg s.c. in mice, and at approximately 1 mg/kg intravenously (i.v.) in dogs and probably represents total inactivation of uracil reductase. These doses elevated mouse, dog, and rat plasma uracil from about 3 uM to about 50-60 uM. […] The ED50 equals 0.01 mg/kg.
# uracil reductase [3] = test: Return of plasma uracil to normal after EU (species not specified); type: in vivo; details: after EU dose of maximum effect
# Experimental: as §1
# uracil reductase [4] = molecular target: T1, uracil reductase (Mus musculus, UniProt Q8CHR6); test: Inactivation of uracil reductase in vivo (plasma uracil and thymine), mice
# T1 construct: from tissue; host or cells: whole animal (mouse), endogenous enzyme
# T1 sequence (Q8CHR6 1-1025): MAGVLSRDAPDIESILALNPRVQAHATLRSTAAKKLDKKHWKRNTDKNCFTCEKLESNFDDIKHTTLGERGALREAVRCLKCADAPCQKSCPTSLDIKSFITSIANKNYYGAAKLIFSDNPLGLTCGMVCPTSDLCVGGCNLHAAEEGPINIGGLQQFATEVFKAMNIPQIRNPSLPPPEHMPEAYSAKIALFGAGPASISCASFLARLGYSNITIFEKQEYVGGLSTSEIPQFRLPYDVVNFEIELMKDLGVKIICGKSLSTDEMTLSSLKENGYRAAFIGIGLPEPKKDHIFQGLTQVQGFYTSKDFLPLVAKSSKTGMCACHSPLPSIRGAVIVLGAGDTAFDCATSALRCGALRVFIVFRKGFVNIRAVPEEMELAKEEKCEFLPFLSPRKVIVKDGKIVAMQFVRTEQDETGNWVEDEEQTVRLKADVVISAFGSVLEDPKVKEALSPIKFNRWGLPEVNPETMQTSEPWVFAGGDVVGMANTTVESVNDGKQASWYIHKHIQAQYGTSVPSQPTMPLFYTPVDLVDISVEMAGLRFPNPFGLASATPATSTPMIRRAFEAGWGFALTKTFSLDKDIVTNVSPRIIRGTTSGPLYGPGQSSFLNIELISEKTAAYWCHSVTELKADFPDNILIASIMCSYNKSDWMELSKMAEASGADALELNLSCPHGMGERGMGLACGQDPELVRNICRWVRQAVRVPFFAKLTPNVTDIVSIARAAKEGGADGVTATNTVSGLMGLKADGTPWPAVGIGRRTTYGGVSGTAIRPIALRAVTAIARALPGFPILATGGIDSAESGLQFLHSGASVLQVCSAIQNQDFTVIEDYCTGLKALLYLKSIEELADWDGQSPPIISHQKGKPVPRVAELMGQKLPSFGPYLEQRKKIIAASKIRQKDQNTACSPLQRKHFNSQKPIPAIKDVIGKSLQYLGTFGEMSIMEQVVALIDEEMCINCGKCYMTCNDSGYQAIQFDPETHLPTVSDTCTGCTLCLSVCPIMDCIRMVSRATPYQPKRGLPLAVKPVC
# Experimental: as §1
# uracil reductase [5] = molecular target: T2, uracil reductase (Rattus norvegicus, UniProt O89000); test: Inactivation of uracil reductase in vivo (plasma uracil and thymine), rats
# T2 construct: from tissue; host or cells: whole animal (rat), endogenous enzyme
# T2 sequence (O89000 1-1025): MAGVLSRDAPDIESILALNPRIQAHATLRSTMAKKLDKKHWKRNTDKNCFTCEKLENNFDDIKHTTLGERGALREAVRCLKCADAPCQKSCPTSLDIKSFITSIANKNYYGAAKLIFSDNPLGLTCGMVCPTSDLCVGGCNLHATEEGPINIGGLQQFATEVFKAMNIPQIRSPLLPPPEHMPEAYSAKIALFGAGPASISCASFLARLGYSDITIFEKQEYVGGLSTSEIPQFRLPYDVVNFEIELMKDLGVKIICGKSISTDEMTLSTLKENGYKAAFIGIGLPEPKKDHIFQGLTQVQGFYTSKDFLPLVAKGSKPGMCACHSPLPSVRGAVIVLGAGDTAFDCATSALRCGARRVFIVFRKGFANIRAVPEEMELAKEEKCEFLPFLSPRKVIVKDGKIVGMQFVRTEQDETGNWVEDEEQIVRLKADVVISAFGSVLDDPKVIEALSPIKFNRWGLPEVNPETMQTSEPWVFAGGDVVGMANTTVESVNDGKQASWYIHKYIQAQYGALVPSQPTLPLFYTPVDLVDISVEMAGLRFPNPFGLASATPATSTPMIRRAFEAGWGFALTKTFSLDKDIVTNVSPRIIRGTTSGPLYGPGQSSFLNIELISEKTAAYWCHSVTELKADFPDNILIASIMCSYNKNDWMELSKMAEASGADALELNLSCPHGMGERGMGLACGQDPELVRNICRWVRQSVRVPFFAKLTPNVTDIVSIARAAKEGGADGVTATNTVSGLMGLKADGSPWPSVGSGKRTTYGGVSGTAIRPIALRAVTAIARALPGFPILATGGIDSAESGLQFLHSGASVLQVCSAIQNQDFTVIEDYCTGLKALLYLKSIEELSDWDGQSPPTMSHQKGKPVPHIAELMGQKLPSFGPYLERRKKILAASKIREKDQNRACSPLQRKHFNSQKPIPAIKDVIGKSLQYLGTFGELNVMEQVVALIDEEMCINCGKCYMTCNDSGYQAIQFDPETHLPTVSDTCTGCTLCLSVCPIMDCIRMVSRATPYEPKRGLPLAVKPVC
# Experimental: as §1
# uracil reductase [6] = test: Inactivation of uracil reductase in vivo (plasma uracil and thymine), monkeys; details: monkeys dosed with small amounts
# Experimental: as §1
smiles,measurement,setting,value
C#Cc1c[nH]c(=O)[nH]c1=O [5-ethynyluracil],plasma levels of 5-fluorouracil,[1],increased
same,plasma uracil,"uracil reductase [2]; dog, at dose of maximum effect, elevated from about 3 uM",50 to 60 µM
same,dose at which the maximum effect on plasma uracil and thymine occurred,"uracil reductase [2]; dogs, intravenously (i.v.)",approximately 1 mg/kg
same,half-life of plasma uracil decrease to normal,uracil reductase [3],10 h
same,time over which plasma uracil decreased to normal,uracil reductase [3],24 h
same,dose at which the maximum effect on plasma uracil and thymine occurred,"uracil reductase [4]; mice, s.c.",0.5 to 1 mg/kg
same,plasma uracil,"uracil reductase [4]; mouse, at dose of maximum effect, elevated from about 3 uM",50 to 60 µM
same,plasma uracil,"uracil reductase [5]; rat, at dose of maximum effect, elevated from about 3 uM",50 to 60 µM
same,ED50,"uracil reductase [5]; rat, oral doses, 4 hours after dosing, read-out: ED50 (increased plasma levels of uracil and thymine)",0.01 mg/kg
same,dose at which the maximum effect on plasma uracil and thymine occurred,"uracil reductase [5]; rats, p.o.",about 0.1 mg/kg
same,plasma uracil and thymine levels,uracil reductase [6],greatly elevated
